Calls of active or inactive are those of the source. The rule behind the calls is not given here.

By IC50 is commonly meant the midpoint of a concentration-inhibition curve.

Test [1] addresses Histamine H3 receptor (Homo sapiens, UniProt Q9Y5N1). Description: Antagonist activity at human histamine H3 receptor expressed in CHO cells assessed as inhibition of forskolin/R-alpha-methylhistamine-induced cAMP accumulation after 1.5 hrs by TR-FRET immunoassay. The class given is functional, cell-based. The conditions noted are these: for Kb: read-out: pA2 (converted). (cAMP levels reflect the balance of adenylyl cyclase and phosphodiesterase activity.)

Test [2] deals with Histamine H4 receptor (Homo sapiens) (UniProt Q9H3N8). In words: Antagonist activity at human histamine H4 receptor expressed in CHO cells assessed inhibition of forskolin/histamine-induced cAMP accumulation at 1 uM after 1.5 hrs by TR-FRET immunoassay. Format: functional, cell-based.
Sequence of Histamine H4 receptor (Homo sapiens) (Q9H3N8 whole entry): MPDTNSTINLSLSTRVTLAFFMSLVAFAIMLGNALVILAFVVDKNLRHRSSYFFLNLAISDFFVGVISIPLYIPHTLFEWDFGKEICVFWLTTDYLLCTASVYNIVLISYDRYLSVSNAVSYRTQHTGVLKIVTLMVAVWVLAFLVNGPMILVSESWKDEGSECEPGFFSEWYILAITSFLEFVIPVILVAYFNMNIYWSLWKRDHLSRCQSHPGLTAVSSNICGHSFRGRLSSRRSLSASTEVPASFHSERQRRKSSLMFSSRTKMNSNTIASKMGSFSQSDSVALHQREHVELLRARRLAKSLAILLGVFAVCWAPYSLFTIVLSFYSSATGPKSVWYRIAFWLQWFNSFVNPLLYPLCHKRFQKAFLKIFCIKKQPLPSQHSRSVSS
Test [3] has the same target. In words: Agonist activity at human histamine H4 receptor expressed in CHO cells assessed increase of forskolin-induced cAMP accumulation at 1 uM after 1.5 hrs by TR-FRET immunoassay. The class given is functional, cell-based.
Test [4] has as its system Rattus norvegicus. In words: Increase of histamine release in Wistar rat hypothalamus at 10 uM administered through dialysis membrane by HPLC-fluorometric based microdialysis relative to control. Format: functional.

Sequence of Histamine H3 receptor (Q9Y5N1 whole entry): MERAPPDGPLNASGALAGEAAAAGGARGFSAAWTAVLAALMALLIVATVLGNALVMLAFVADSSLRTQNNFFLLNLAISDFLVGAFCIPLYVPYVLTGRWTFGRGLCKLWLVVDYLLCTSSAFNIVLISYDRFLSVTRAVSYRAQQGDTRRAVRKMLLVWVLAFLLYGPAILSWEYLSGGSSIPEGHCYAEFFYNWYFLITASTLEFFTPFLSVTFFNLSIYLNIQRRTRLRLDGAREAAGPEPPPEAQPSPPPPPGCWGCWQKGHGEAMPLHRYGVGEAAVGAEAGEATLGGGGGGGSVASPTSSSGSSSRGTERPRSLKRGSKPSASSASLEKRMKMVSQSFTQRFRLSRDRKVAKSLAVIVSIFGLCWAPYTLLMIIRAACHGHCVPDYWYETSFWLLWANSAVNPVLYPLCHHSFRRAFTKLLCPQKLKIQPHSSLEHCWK

For the compound `N=C(NCc1ccc(Cl)cc1)SCCCN1CCCC1`, in test [1], the IC50 is 20 nM.

In the case of `O=C(CCCN1CCCCC1)NCCCCc1ccc(C(F)(F)F)cc1`, the IC50 in test [1] was 126 nM.

As for `N=C(NCc1ccc(Cl)cc1)SCCCN1CCNCC1`, the IC50 in test [1] is 6310 nM.

As to `N=C(NCCc1ccc(Cl)cc1)SCCCN1CCOCC1`, the IC50 in test [1] was 316 nM.

As to `N=C(NCCCCc1ccc(C(F)(F)F)cc1)SCCCN1CCCCC1`, in test [1], the IC50 was 15.8 nM and the Kb was 12.6 nM.

Turning to `O=C(CCCN1CCCCC1)NCCCCc1ccc(Cl)cc1`, the IC50 in test [1] is 126 nM.

`N#Cc1ccc(CCCCNC(=N)SCCCN2CCCCC2)cc1`: in test [1], the IC50 was 2 nM and the Kb was 2 nM. Further, the inhibition result in test [2] was “inactive”. In addition, in test [3], the outcome was inactive.

Turning to `N=C(NCc1ccc(Cl)cc1)SCCCc1c[nH]cn1` [CLOBENPROPIT], the Activity in test [4] came out at 145.6%.

As for `N=C(NCCCCN1CCCCC1)SCCCN1CCCCC1`, in test [1], the IC50 was 6.31 nM and the Kb was 2 nM. Also, in test [2], the inhibition entry was “inactive”. Further, in test [3], the outcome was inactive.

Regarding `Cl.N=C(NCCCCCc1ccccc1)SCCCN1CCCCC1`, the Activity in test [4] is 90.5%. In addition, in test [1], the IC50 was 31.6 nM and the Kb was 10 nM.

On to `N=C(NCCc1ccc(Cl)cc1)SCCCN1CCCC1`, for which the IC50 in test [1] was 31.6 nM.

In test [4], `Cl.N=C(NCc1ccc(Cl)cc1)SCCCN1CCCCC1` gave an Activity of 134.4%. In addition, in test [1], the IC50 was 79.4 nM and the Kb was 39.8 nM.

For `CN1CCN(CCCSC(=N)NCc2ccc(Cl)cc2)CC1`, the IC50 in test [1] was 1260 nM.

Turning to `O=C(CCCCc1ccc(Cl)cc1)NCCCN1CCCCC1`, the IC50 in test [1] was 316 nM.

`Cl.N=C(NCCCCc1ccc(Cl)cc1)SCCCN1CCCCC1` yielded an Activity in test [4] of 101.2%. Also, in test [1], the IC50 was 6.31 nM and the Kb was 0.251 nM. The inhibition result in test [2] was “inactive”. In test [3], the outcome was inactive.

The compound `Cl.N=C(NCCc1ccc(Cl)cc1)SCCCN1CCCCC1` had an Activity in test [4] of 145.8%. Besides, in test [1], the IC50 is 7.94 nM and the Kb is 39.8 nM. For the same compound, the inhibition entry in test [2] was “inactive”. Also, the result in test [3] was inactive.

For the compound `Cl.N=C(NCCCc1ccc(Cl)cc1)SCCCN1CCCCC1`, in test [4], the Activity is on record as 102.2%. In test [1], the IC50 was 6.31 nM and the Kb was 2 nM. The inhibition result in test [2] is “inactive”. For the same compound, the result in test [3] was inactive.

For the compound `N=C(NCc1ccc(Cl)cc1)SCCCN1CCOCC1`, the IC50 in test [1] is 1580 nM.

The record behind these values is ChEMBL document CHEMBL2440068, “Synthesis and evaluation of N-alkyl-S-[3-(piperidin-1-yl)propyl]isothioureas: high affinity and human/rat species-selective histamine H(3) receptor antagonists” (Bioorg Med Chem Lett, 2013).
